From patent US9023354B2, “Combination therapy with MDM2 and EFGR inhibitors” (priority 2010, dated 2015)
pIC50: −log10 of the molar value.

Test system: A431 cells
Test: A431 cell proliferation assay (MTT), alone and in combination with Tarceva
Assay type: cell-based
Settings: for A431 Cell Proliferation CI Value: combination with Tarceva, CI <0.8 indicates synergy, Example 9, Table 7B; for pIC50: Homo sapiens, A-431, A431 cells, further studies, Example 9, Table 7A, read-out: A431 Cell Proliferation (IC50 Value)
Protocol: This example describes an assay that measures the ability of compounds to inhibit the proliferation of cultured cells. This assay can also be used to assess whether combining two or more compounds produces additive, synergistic, or antagonistic effects on cell growth.
On day 1, the cells were seeded at 10^3 cells per well in 100 μl of complete media under standard conditions.
On day 2, the cells were washed and 100 μl serum free media was added. The cells were then incubated for at least 2 hours before the addition of compound(s). 20 μl of compound(s) was added to the respective wells and incubated at 37° C., 5% CO2 for 72 hrs.
On day 5, 50 μl of the MTT dye solution was added to each well. The plates were incubated at 37° C., 5% CO2 for 1 hr. The media was then aspirated and the cells were resuspended in […] of DMSO. The plates were allowed to incubate for 5 min at room temperature with gentle shaking.
The absorbance in each well was determined at 560 nm using a Polarstar plate reader.
The A431 cell line over-expresses the EGF receptor, and was utilized to assess the ability of AD4 compounds to inhibit EGF-mediated cell proliferation.

| SMILES | pIC50 | A431 Cell Proliferation CI Value |
| --- | --- | --- |
| Oc1c(C(Nc2cccnc2)c2cccs2)ccc2cccnc12 (stereo not drawn) [AD4-10315] | – | 0.79 |
| Oc1c(C(Nc2ccccn2)c2ccc(Cl)cc2Cl)ccc2cccnc12 (stereo not drawn) [AD4-10484] | – | 0.97 |
| Cc1cccc(NC(c2ccc(OC(F)(F)F)cc2)c2ccc3cccnc3c2O)n1 (stereo not drawn) [AD4-12902] | – | 0.7 |
| Cc1cccc(NC(c2cccc(C(F)(F)F)c2)c2ccc3cccnc3c2O)n1 (stereo not drawn) [AD4-12903] | – | 0.67 |
| Cc1cccc(NC(c2cccc(Cl)c2Cl)c2ccc3cccnc3c2O)n1 (stereo not drawn) [AD4-12905] | – | 0.67 |
| Cc1ccnc(NC(c2cccc(Cl)c2Cl)c2ccc3cccnc3c2O)c1 (stereo not drawn) [AD4-12906] | – | 0.66 |
| COc1ccc(C(Nc2cccc(C)n2)c2ccc3cccnc3c2O)cc1O (stereo not drawn) [AD4-12909] | – | 0.54 |
| Oc1c(C(Nc2ccccn2)c2cc(Cl)ccc2Cl)ccc2cccnc12 (stereo not drawn) [AD4-12910] | – | 0.69 |
| Cc1ccnc(NC(c2ccc(Cl)c(Cl)c2)c2ccc3cccnc3c2O)c1 (stereo not drawn) [AD4-12917] | – | 0.54 |
| Cc1cccc(NC(c2ccc3cccnc3c2O)c2c(F)c(F)cc(F)c2F)n1 (stereo not drawn) [AD4-12918] | – | 0.65 |
| Oc1c(C(Nc2ccc(C(F)(F)F)cn2)c2ccc(C(F)(F)F)cc2)ccc2cccnc12 (stereo not drawn) [AD4-13028] | 5.74 | 0.76 |
| Oc1c(C(Nc2ccc(C(F)(F)F)nc2)c2ccc(C(F)(F)F)c(F)c2)ccc2cccnc12 (stereo not drawn) [AD4-13051] | 5.80 | 0.72 |
| Oc1c(C(Nc2ccc(Cl)cn2)c2ccc(Cl)c(Cl)c2)ccc2cccnc12 (stereo not drawn) [AD4-13054] | – | 0.61 |
| Cc1cc(Cl)cnc1NC(c1cc(C(F)(F)F)ccc1Cl)c1ccc2cccnc2c1O (stereo not drawn) [AD4-13058] | – | 0.50 |
| Oc1c(C(Nc2ccc(C(F)(F)F)nc2)c2cc(C(F)(F)F)ccc2Cl)ccc2cccnc12 (stereo not drawn) [AD4-13062] | – | 0.57 |
| Oc1c(C(Nc2ccc(C(F)(F)F)nc2)c2ccc(C(F)(F)F)cc2)ccc2cccnc12 (stereo not drawn) [AD4-13063] | 5.36 | 0.77 |
| Oc1c(C(Nc2ccc(C(F)(F)F)nc2)c2ccc(C(F)(F)F)cc2F)ccc2cccnc12 (stereo not drawn) [AD4-13065] | 5.34 | 0.61 |
| Oc1c(C(Nc2ccc(Cl)cn2)c2ccc(Cl)c(C(F)(F)F)c2)ccc2cccnc12 (stereo not drawn) [AD4-13067] | – | 0.63 |
| Oc1c(C(Nc2ccc(F)cn2)c2c(F)c(F)cc(F)c2F)ccc2cccnc12 (stereo not drawn) [AD4-13070] | – | 0.65 |
| Cc1cccc(NC(c2cccc(Cl)c2Cl)c2ccc3ccc(C)nc3c2O)n1 (stereo not drawn) [AD4-13073] | 5.80 | 0.85 |
| Cc1cccc(NC(c2ccc(Cl)c(Cl)c2)c2ccc3ccc(C)nc3c2O)n1 (stereo not drawn) [AD4-13080] | – | 0.68 |
| Cc1cccc(NC(c2ccc3ccc(C)nc3c2O)c2c(Cl)cccc2Cl)n1 (stereo not drawn) [AD4-13089] | – | 0.67 |
| Oc1c(C(Nc2ccccn2)c2c(F)c(F)c(OCC(F)(F)F)c(F)c2F)ccc2cccnc12 (stereo not drawn) [AD4-13093] | 5.74 | 0.80 |
| Oc1c(C(Nc2ccc(F)cn2)c2ccc(F)cc2Cl)ccc2cccnc12 (stereo not drawn) [AD4-13099] | – | 0.61 |
| Cc1ccc2ccc(C(Nc3cccnc3)c3c(F)c(F)c(OCC(F)(F)F)c(F)c3F)c(O)c2n1 (stereo not drawn) [AD4-13101] | – | 0.66 |

More lines, main results first:

| pIC50 | SMILES | A431 Cell Proliferation CI Value |
| --- | --- | --- |
| 5.38 | Oc1c(C(Nc2cccnc2)c2cccc(Cl)c2Cl)ccc2cccnc12 (stereo not drawn) [AD4-12908] | 0.64 |
| 5.85 | Cc1cccc(NC(c2ccc(Cl)cc2Cl)c2ccc3cccnc3c2O)n1 (stereo not drawn) [AD4-12911] | 0.76 |
| 5.92 | Cc1ccnc(NC(c2ccc(Cl)cc2Cl)c2ccc3cccnc3c2O)c1 (stereo not drawn) [AD4-12912] | 0.70 |
| 5.85 | Oc1c(C(Nc2ccccn2)c2cc(Cl)cc(Cl)c2)ccc2cccnc12 (stereo not drawn) [AD4-12914] | 0.74 |
| 5.96 | Cc1ccnc(NC(c2cc(Cl)cc(Cl)c2)c2ccc3cccnc3c2O)c1 (stereo not drawn) [AD4-12915] | 0.68 |
| 5.74 | Cc1cccc(NC(c2cc(Cl)cc(Cl)c2Cl)c2ccc3cccnc3c2O)n1 (stereo not drawn) [AD4-13023] | 0.74 |
| 5.74 | Oc1c(C(Nc2ccc(C(F)(F)F)cn2)c2ccc(F)cc2F)ccc2cccnc12 (stereo not drawn) [AD4-13029] | 0.83 |
| 5.70 | Oc1c(C(Nc2ccc(C(F)(F)F)cn2)c2ccc(Cl)c(Cl)c2)ccc2cccnc12 (stereo not drawn) [AD4-13030] | 0.83 |
| 5.80 | Oc1c(C(Nc2ccc(C(F)(F)F)cn2)c2ccc(C(F)(F)F)cc2F)ccc2cccnc12 (stereo not drawn) [AD4-13031] | 0.74 |
| 5.74 | Oc1c(C(Nc2ccc(C(F)(F)F)cn2)c2ccc(Cl)c(C(F)(F)F)c2)ccc2cccnc12 (stereo not drawn) [AD4-13032] | 0.69 |
| 5.72 | Oc1c(C(Nc2ccc(C(F)(F)F)cn2)c2ccc(C(F)(F)F)c(F)c2)ccc2cccnc12 (stereo not drawn) [AD4-13034] | 0.70 |
| 5.68 | Cc1cc(Cl)cnc1NC(c1ccc(C(F)(F)F)c(F)c1)c1ccc2cccnc2c1O (stereo not drawn) [AD4-13043] | 0.81 |
| 5.74 | Oc1c(C(Nc2ccc(F)cn2)c2cc(C(F)(F)F)ccc2Cl)ccc2cccnc12 (stereo not drawn) [AD4-13049] | 0.84 |
| 6.00 | Oc1c(C(Nc2ccc(Cl)cn2)c2cc(C(F)(F)F)ccc2Cl)ccc2cccnc12 (stereo not drawn) [AD4-13052] | 0.75 |
| 5.82 | Oc1c(C(Nc2ccc(Cl)cn2)c2ccc(C(F)(F)F)c(F)c2)ccc2cccnc12 (stereo not drawn) [AD4-13055] | 0.75 |
| 5.72 | Oc1c(C(Nc2ccc(C(F)(F)F)cn2)c2cc(C(F)(F)F)ccc2Cl)ccc2cccnc12 (stereo not drawn) [AD4-13056] | 0.63 |
| 5.96 | Oc1c(C(Nc2ccccn2)c2ccc(Cl)c(C(F)(F)F)c2)ccc2cccnc12 (stereo not drawn) [AD4-13057] | 0.83 |
| 6.00 | Cc1cc(Cl)cnc1NC(c1ccc2cccnc2c1O)c1c(F)c(F)cc(F)c1F (stereo not drawn) [AD4-13059] | 0.71 |
| 5.82 | Oc1c(C(Nc2cc(Cl)ccn2)c2cc(C(F)(F)F)ccc2Cl)ccc2cccnc12 (stereo not drawn) [AD4-13060] | 0.76 |

| pIC50 | SMILES | A431 Cell Proliferation CI Value |
| --- | --- | --- |
| 5.66 | Oc1c(C(Nc2ccc(F)cn2)c2ccc(C(F)(F)F)c(F)c2)ccc2cccnc12 (stereo not drawn) [AD4-13061] | 0.79 |
| 5.29 | Oc1c(C(Nc2ccc(C(F)(F)F)nc2)c2ccc(Cl)c(Cl)c2)ccc2cccnc12 (stereo not drawn) [AD4-13064] | 0.64 |
| 5.27 | Oc1c(C(Nc2ccc(C(F)(F)F)nc2)c2ccc(Cl)cc2Cl)ccc2cccnc12 (stereo not drawn) [AD4-13066] | 0.60 |
| 5.24 | Cc1cc(Cl)cnc1NC(c1ccc(F)cc1F)c1ccc2cccnc2c1O (stereo not drawn) [AD4-13068] | 0.68 |
| 6.04 | Oc1c(C(Nc2cc(Cl)ccn2)c2ccc(Cl)c(Cl)c2)ccc2cccnc12 (stereo not drawn) [AD4-13069] | 0.91 |
| 5.46 | Oc1c(C(Nc2ccc(F)cn2)c2ccc(Cl)c(C(F)(F)F)c2)ccc2cccnc12 (stereo not drawn) [AD4-13071] | 0.70 |
| 5.85 | Cc1cccc(NC(c2cc(Cl)cc(Cl)c2)c2ccc3ccc(C)nc3c2O)n1 (stereo not drawn) [AD4-13075] | 0.83 |
| 5.85 | Cc1cccc(NC(c2cc(Cl)cc(Cl)c2)c2cc(Cl)c3cccnc3c2O)n1 (stereo not drawn) [AD4-13076] | 0.71 |
| 5.74 | Cc1ccnc(NC(c2cc(Cl)cc(Cl)c2)c2cc(Cl)c3cccnc3c2O)c1 (stereo not drawn) [AD4-13079] | 0.91 |
| 5.72 | Cc1cccc(NC(c2ccc(Cl)cc2Cl)c2ccc3ccc(C)nc3c2O)n1 (stereo not drawn) [AD4-13082] | 0.90 |
| 5.82 | Oc1c(C(Nc2ccc(Cl)cn2)c2cccc(Cl)c2Cl)ccc2cccnc12 (stereo not drawn) [AD4-13086] | 0.80 |
| 5.74 | Oc1c(C(Nc2ccc(Cl)cn2)c2ccccc2Cl)ccc2cccnc12 (stereo not drawn) [AD4-13087] | 0.70 |
| 5.82 | Oc1c(C(Nc2ccc(Cl)cn2)c2ccc(F)cc2Cl)ccc2cccnc12 (stereo not drawn) [AD4-13088] | 0.76 |
| 5.80 | Oc1c(C(Nc2ccc(Cl)cn2)c2c(F)cccc2Cl)ccc2cccnc12 (stereo not drawn) [AD4-13091] | 0.89 |
| 5.82 | Cc1ccnc(NC(c2ccc3cccnc3c2O)c2c(F)c(F)c(OCC(F)(F)F)c(F)c2F)c1 (stereo not drawn) [AD4-13092] | 0.79 |
| 5.89 | Oc1c(C(Nc2ccc(Cl)cn2)c2cc(Cl)cc(Cl)c2)ccc2cccnc12 (stereo not drawn) [AD4-13094] | 0.76 |
| 5.52 | Cc1ccnc(NC(c2ccc(C(F)(F)F)cc2F)c2ccc3ccc(C)nc3c2O)c1 (stereo not drawn) [AD4-13096] | 0.61 |
| 5.80 | Oc1c(C(Nc2ccc(F)cn2)c2cc(Cl)cc(Cl)c2)ccc2cccnc12 (stereo not drawn) [AD4-13098] | 0.86 |
